Source: the supplement of paper PMC11061612

Experiments:
Experiment in all cases: combination Emax (second highest fraction inhibited in the dose matrix, 72 h); higher = more inhibition; extreme values may be limits of the assay
[1] = test system: NCI-H526 (Small Cell Lung Carcinoma)
In short: (§1)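 Cell lines grown in DMEM/F12 or RPMI with 10% FBS were plated in 1536-well plates and held 24 hours at 37°C, 5% CO2 before 72 hours of exposure to two-drug dose matrices, with DMSO typically at 0.2%. CellTiter-Glo 2.0 luminescence gave viability, which was converted to inhibition. Vehicle wells were set to 0 and blank wells to 1. Combination Emax is the second-highest inhibition in the matrix, and Bliss excess is the observed combination effect minus the expected EA + EB − EA·EB, where EA and EB are the single-agent effects.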

[2] = test system: JHH-4 (Hepatocellular Carcinoma)
In short: as §1

[3] = test system: KMS-12-BM (Plasma Cell Myeloma)
In short: as §1

[4] = test system: G-361 (Melanoma)
In short: as §1

[5] = test system: HCC1419 (Breast Carcinoma)
In short: as §1

[6] = test system: NCI-H2731 (Mesothelioma)
In short: as §1

[7] = test system: SUP-B15 (B-Lymphoblastic Leukemia)
In short: as §1

[8] = test system: RD (Rhabdomyosarcoma)
In short: as §1

[9] = test system: HCC1187 (Breast Carcinoma)
In short: as §1

[10] = test system: DAN-G (Pancreatic Carcinoma)
In short: as §1

[11] = test system: H9 (T-Cell Non-Hodgkin's Lymphoma)
In short: as §1

[12] = test system: PC-3 (Prostate Carcinoma)
In short: as §1

[13] = test system: RPMI-8226 (Plasma Cell Myeloma)
In short: as §1

[14] = test system: MOLM-13 (Acute Myeloid Leukemia)
In short: as §1

[15] = test system: KP-3 (Pancreatic Carcinoma)
In short: as §1

[16] = test system: NCCIT (Other Solid Carcinomas)
In short: as §1

[17] = test system: ESO51 (Esophageal Adenocarcinoma)
In short: as §1

[18] = test system: T-T (Esophageal Squamous Cell Carcinoma)
In short: as §1

[19] = test system: 8505C (Thyroid Gland Carcinoma)
In short: as §1

[20] = test system: SNU-398 (Hepatocellular Carcinoma)
In short: as §1

Row | SMILES | combination Emax [1] | combination Emax [2] | combination Emax [3] | combination Emax [4] | combination Emax [5] | combination Emax [6] | combination Emax [7] | combination Emax [8] | combination Emax [9] | combination Emax [10] | combination Emax [11] | combination Emax [12] | combination Emax [13] | combination Emax [14] | combination Emax [15] | combination Emax [16] | combination Emax [17] | combination Emax [18] | combination Emax [19] | combination Emax [20]
1 | C=CCn1c(=O)c2cnc(Nc3ccc(N4CCN(C)CC4)cc3)nc2n1-c1cccc(C(C)(C)O)n1 [AZD1775] + C1CN(CCC1(C(=O)N[C@@H](CCO)C2=CC=C(C=C2)Cl)N)C3=NC=NC4=C3C=CN4 [Capivasertib] (first compound max 3 µM, partner max 3 µM) | 0.907 | 0.439 | 0.984 | 0.724 | 0.282 | 0.416 | 0.954 | 0.797 | 0.936 | 0.848 | 0.95 | 0.394 | 0.822 | 1 | 0.28 | 0.963 | 0.814 | 0.618 | 0.741 | 0.786
2 | COc1cccc(OCCCN)c1-c1cc(Nc2cnc(C#N)cn2)n[nH]1 [Prexasertib] + O=C(c1cc(Cc2n[nH]c(=O)c3ccccc23)ccc1F)N1CCN(C(=O)C2CC2)CC1 [Olaparib] (first compound max 1 µM, 7x7, partner max 10 µM) | 0.912 | 0.532 | 1 | 0.668 | 0.266 | 0.387 | 0.98 | 0.58 | 0.614 | 0.801 | 1 | 0.43 | 0.999 | 1 | 0.469 | 0.621 | 0.555 | 0.795 | 0.722 | 0.383
3 | CCN(CCO)CCCOc1ccc2c(Nc3cc(CC(=O)Nc4cccc(F)c4)[nH]n3)ncnc2c1 [AZD2811] + C[C@@H]1COCCN1C2=NC(=NC(=C2)C3(CC3)[S@](=N)(=O)C)C4=C5C=CNC5=NC=C4 [AZD6738] (first compound max 1 µM, 7x7, partner max 10 µM) | 0.634 | 0.0985 | 0.941 | 0.441 | 0.0919 | 0.308 | 0.914 | 0.252 | 0.846 | 0.648 | 0.977 | 0.431 | 0.967 | 1 | 0.368 | 0.561 | 0.751 | 0.42 | 0.278 | 0.485
4 | Cc1cc2ncnn2cc1Nc1ncc2c(n1)n(C1CCOCC1)c(=O)n2C [AZD7648] + C[C@@H]1COCCN1C2=NC(=NC(=C2)C3(CC3)[S@](=N)(=O)C)C4=C5C=CNC5=NC=C4 [AZD6738] (first compound max 10 µM, 7x7, partner max 10 µM) | 0.637 | 0.276 | 0.926 | 0.45 | 0.327 | 0.381 | 0.848 | 0.246 | 0.278 | 0.643 | 0.964 | 0.402 | 0.855 | 0.998 | 0.296 | 0.641 | 0.744 | 0.531 | 0.361 | 0.46
5 | CC1(C)CCC(CN2CCN(c3ccc(C(=O)NS(=O)(=O)c4ccc(NCC5CCOCC5)c([N+](=O)[O-])c4)c(Oc4cnc5[nH]ccc5c4)c3)CC2)=C(c2ccc(Cl)cc2)C1 [Venetoclax] + CN(C)CCCOc1ccc(-c2ccc3ncc4c(c3c2)n(C2CCOCC2)c(=O)n4C)cn1 [AZD0156] (first compound max 1 µM, 7x7, partner max 1 µM) | 0.856 | 0.234 | 1 | 0.115 | 0.289 | 0.145 | 1 | 0.161 | 0.173 | 0.264 | 0.156 | 0.21 | 0.43 | 0.898 | 0.146 | 0.275 | 0.147 | 0.204 | 0.2 | 0.234
6 | COc1nnc2ccc(N3CCC(c4ccc(OCCN5CCN(C)C(=O)[C@H]5C)cc4)CC3)nn12 [AZD5153] + CC1(C)CCC(CN2CCN(c3ccc(C(=O)NS(=O)(=O)c4ccc(NCC5CCOCC5)c([N+](=O)[O-])c4)c(Oc4cnc5[nH]ccc5c4)c3)CC2)=C(c2ccc(Cl)cc2)C1 [Venetoclax] (first compound max 1 µM, 7x7, partner max 1 µM) | 0.973 | 0.392 | 1 | 0.617 | 0.389 | 0.432 | 1 | 0.533 | 0.24 | 0.268 | 1 | 0.366 | 0.8 | 1 | 0.21 | 0.807 | 0.581 | 0.55 | 0.419 | 0.447
7 | COc1nnc2ccc(N3CCC(c4ccc(OCCN5CCN(C)C(=O)[C@H]5C)cc4)CC3)nn12 [AZD5153] + Cc1c2c(nn1C)CSCc1cc(n(C)n1)CSc1cc(c3ccccc3c1)OCCCc1c(C(=O)O)n(C)c3c-2c(Cl)ccc13 [AZD5991] (first compound max 1 µM, 7x7, partner max 1 µM) | 1 | 0.379 | 1 | 0.997 | 0.567 | 0.528 | 1 | 0.808 | 1 | 0.337 | 1 | 0.376 | 1 | 1 | 0.275 | 0.998 | 0.708 | 0.958 | 0.475 | 1
8 | COc1cccc(OCCCN)c1-c1cc(Nc2cnc(C#N)cn2)n[nH]1 [Prexasertib] + CN(C)CCCOc1ccc(-c2ccc3ncc4c(c3c2)n(C2CCOCC2)c(=O)n4C)cn1 [AZD0156] (first compound max 1 µM, 7x7, partner max 1 µM) | 0.895 | 0.529 | 1 | 0.702 | 0.258 | 0.406 | 0.959 | 0.536 | 0.645 | 0.824 | 1 | 0.272 | 1 | 1 | 0.513 | 0.833 | 0.788 | 0.597 | 0.541 | 0.436
9 | Cc1cc2ncnn2cc1Nc1ncc2c(n1)n(C1CCOCC1)c(=O)n2C [AZD7648] + O=C(c1cc(Cc2n[nH]c(=O)c3ccccc23)ccc1F)N1CCN(C(=O)C2CC2)CC1 [Olaparib] (first compound max 10 µM, 7x7, partner max 10 µM) | 0.473 | 0.112 | 0.429 | 0.117 | 0.174 | 0.14 | 0.917 | 0.161 | 0.294 | 0.531 | 0.22 | 0.265 | 0.464 | 0.43 | 0.0579 | 0.192 | 0.224 | 0.0568 | 0.229 | 0.134
10 | CC1(C)CCC(CN2CCN(c3ccc(C(=O)NS(=O)(=O)c4ccc(NCC5CCOCC5)c([N+](=O)[O-])c4)c(Oc4cnc5[nH]ccc5c4)c3)CC2)=C(c2ccc(Cl)cc2)C1 [Venetoclax] + C[C@@H](Nc1cc(F)cc(F)c1)c1cc(C(=O)N(C)C)cc2c(=O)cc(N3CCOCC3)oc12 [AZD8186] (first compound max 1 µM, 7x7, partner max 3 µM) | 0.799 | 0.211 | 1 | 0.248 | 0.181 | 0.107 | 1 | 0.265 | 0.138 | 0.0841 | 0.299 | 0.312 | 0.194 | 1 | 0.0603 | 0.177 | 0.334 | 0.172 | 0.109 | 0.166
11 | CN(CCO)CC[C@H](CSc1ccccc1)Nc1ccc(S(=O)(=O)NC(=O)c2ccc(N3CCC([C@@H](O)c4ccccc4-c4ccc(Cl)cc4)CC3)cc2)cc1S(=O)(=O)C(F)(F)F [AZD4320] + Cn1cnc2c(F)c(Nc3ccc(Br)cc3Cl)c(C(=O)NOCCO)cc21 [Selumetinib] (first compound max 1 µM, 7x7, partner max 3 µM) | 0.984 | 0.326 | 1 | 0.849 | 0.336 | 0.22 | 1 | 0.904 | 0.377 | 0.413 | 1 | 0.352 | 0.965 | 1 | 0.198 | 0.224 | 0.476 | 0.325 | 0.475 | 0.38
12 | Cc1c2c(nn1C)CSCc1cc(n(C)n1)CSc1cc(c3ccccc3c1)OCCCc1c(C(=O)O)n(C)c3c-2c(Cl)ccc13 [AZD5991] + CC1(C)CCC(CN2CCN(c3ccc(C(=O)NS(=O)(=O)c4ccc(NCC5CCOCC5)c([N+](=O)[O-])c4)c(Oc4cnc5[nH]ccc5c4)c3)CC2)=C(c2ccc(Cl)cc2)C1 [Venetoclax] (first compound max 1 µM, 7x7, partner max 1 µM) | 1 | 0.265 | 1 | 0.968 | 0.275 | 0.0671 | 1 | 0.553 | 0.997 | 0.247 | 0.693 | 0.171 | 1 | 1 | 0.129 | 0.692 | 0.187 | 0.908 | 0.135 | 1
